Test results published in patent publication US4487761A, “Dopamine β-hydroxylase inhibitors” (Merck & Co., Inc., priority 1982, dated 1984).

Molecular target: T1, Dopamine β-hydroxylase (Bos taurus, UniProt P15101)
T1 construct: Dopamine β-hydroxylase was obtained from beef adrenal glands; from tissue; host or cells: beef adrenal glands
T1 sequence (P15101 1-610): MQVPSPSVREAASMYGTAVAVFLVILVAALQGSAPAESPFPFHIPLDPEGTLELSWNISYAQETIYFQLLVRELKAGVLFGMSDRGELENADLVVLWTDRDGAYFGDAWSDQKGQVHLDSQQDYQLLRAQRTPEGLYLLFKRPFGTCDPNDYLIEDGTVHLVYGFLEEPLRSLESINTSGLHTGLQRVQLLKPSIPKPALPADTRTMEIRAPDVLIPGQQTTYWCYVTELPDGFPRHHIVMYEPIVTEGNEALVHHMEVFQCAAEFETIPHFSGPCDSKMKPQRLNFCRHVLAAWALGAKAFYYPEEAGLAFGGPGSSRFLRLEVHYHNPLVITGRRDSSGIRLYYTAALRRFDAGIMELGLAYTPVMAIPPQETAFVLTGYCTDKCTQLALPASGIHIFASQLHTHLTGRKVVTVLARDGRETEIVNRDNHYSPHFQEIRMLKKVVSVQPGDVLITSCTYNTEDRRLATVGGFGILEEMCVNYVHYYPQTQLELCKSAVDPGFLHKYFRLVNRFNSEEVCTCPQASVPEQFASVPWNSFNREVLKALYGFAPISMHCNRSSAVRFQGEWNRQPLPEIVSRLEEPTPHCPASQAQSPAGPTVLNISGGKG
Assay: Dopamine β-Hydroxylase Inhibition Assay
Type: biochemical
Settings: 5 mM tyramine, pH 5.5, 37° C., 10 minutes; enzyme from beef adrenal glands; read-out: I50 (inhibition median) (converted)
Protocol: Dopamine β-hydroxylase was obtained from beef adrenal glands. Minced adrenals were homogenized with 0.025M potassium phosphate buffer (pH--6.4) and centrifuged. The supernatant was adjusted to a final concentration of 1% Triton X-100 (Calbiochem. Inc.) by the addition of one-fourth volume of a 5% Triton X-100 solution and stirred at room temperature for 30 minutes. The Triton X-100 treated supernatant was centrifuged, and fractionated with a 66% aqueous ammonium sulfate solution. The resulting precipitate was homogenized in 0.025M potassium phosphate buffer (pH=6.4) and dialyzed. The dialysate was applied to a DE-52 Cellulose Column (Whatman Co.), pre-equilibrated with 0.005M potassium phosphate buffer (pH=6.4), and preloaded with about 2 cm of acid-washed activated carbon, located directly above the cellulose resin. […]
The assay for the dopamine β-hydroxylase inhibition was carried out in a 1 ml incubation mixture containing 5 mM tyramine (freashly prepared), 1.5 mM ascorbic acid (prepared monthly), 0.4 mM sodium fumarate, 0.045 mM pargyline, catalase ([…] per ml, 500 units) and 0.065M sodium acetate buffer, pH 5.5. […] The optical absorbance of the organic phase was measured at 280 nm. […]

IC50 [nM]	Compound
~158	Cc1nc(O)c(O)c(CO)c1O [Compound I]
~262	Cc1nc(O)c(O)cc1O [Compound II]
